The text below walks through data of patent publication EP1186305A1 (Schering Aktiengesellschaft, priority 2000, dated 2002).

Molecules are shown by their SMILES.

Data set [1] in a line: Viscosity of contrast media formulations (capillary viscosimeter). It is filed as physicochemical. The settings on record: formulations 0.788 (monomer) or 0.394 (dimer) mol/L. As for the experimental part: (§1) For this purpose contrast media formulation with a molar concentration of […] for monomeric compounds and of […] for dimeric compounds, equivalent to a iodine concentration of 300 mgI/mL or 189 mgBr/mL were prepared at neutral pH. After heat sterilization under standard conditions for 20 min at 120°C changes in pH and free bromine and iodine was measured. The osmolality was measured at 37°C using a Knauer vapor pressure osmometer. Viscosity of contrast media formulations was determined using a Schott capillary viscosimeter which was standardized with water.

The nature of data set [2]: Osmolality of contrast media formulations (vapor pressure osmometer). It is filed as physicochemical. As to the method: as §1
A short description of another data set: Aqueous solubility. It counts as physicochemical.
The test system of another data set is male Sprague-Dawley mice. Put plainly: Acute tolerance, approximate LD50 after single intravenous injection.
The nature of data set [3]: Phantom studies with conventional mammography (X-ray absorption of contrast media in agar discs). The following applies: 10 mm agar discs in 5 cm water phantom, film mammography. As to the method: The agar pieces were prepared in cell-culture well-plates having a diameter of 24 mm and a final height of 10 mm. After formation of solid agar the agar discs were placed in a water phantom containing 5 cm height of water. Additionally a control agar disc prepared with physiological saline instead of CM volume was added. The whole phantom was imaged with a commercial available mammograph at various energies of 30 kV, 25 and 20 kV and 140 mAs. After exposure the mammographic films were developed according to standard quality guidelines. Later the films were digitized and signal intensities of the agar discs and surrounding water background were measured with a imaging analyzing software.

A short description of data set [4]: Pharmacokinetic profile after intravenous administration of 3H-labelled compound. It is filed as in vivo, male Sprague-Dawley rats. The settings on record: rats. As to the method: The pharmacokinetic profile of example 4 was examined after intravenous administration of 3H-labelled example 4 to male Sprague-Dawley rats. For this purpose example 4 was labeled with tritium of a chemical concentration of 300 mg / mL and a radioactive concentration of 2.75 MBq/mL. After intravenous injection in the right jugular vein via a catheter at a dose of 600 mg EXAMPLE 4/kg blood samples of 400 µl were collected in plastic tubes at 0.083, 0.25, 0.5, 1, 2, 4, 6, 8 and 24 hours after administration. Plasma samples were obtained after blood sample centrifugation at 250 g for 10 min. After injection, the rats were transferred in metabolic cages allowing the collection of urine and faeces at different intervals. Aliquots of 100 µl of samples with blood or urine were added to 10 ml of scintillation cocktail and the radioactivity was measured by means of a Tricor-2500 TR automatic scintillation spectrometer. Faeces samples were freeze-dried for two days. They were milled and aliquots of 50 or 100 mg were taken, moistened with 1 mL water and digested with Soluene-350® and 1 mL of isopropyl alcohol at 50 °C for 24 hours. Digested faeces samples were bleached and radioactivity was measured as mentioned above. Plasma levels of example 4 and mean cumulative urinary and faecal excretion data were fitted to a two-compartment model. Curve fit and evaluation of kinetic parameters was performed on the TOP-Fit v 2.0β program.

The next data set relates to erythrocyte morphology. Put plainly: Influence on erythrocyte morphology in rat blood (damage index). It counts as cell-based. The settings on record: for Erythrocyte morphology Damage index 2 h: six parts blood to one part test substance, 2 h incubation. As to the method:
Six parts by volume was mixed with one part by volume of each test substance. The mixtures were examined with and optical microscope immediately, 1 hour and 2 hours after incubation in terms of a damage index of blood cells.

The next data set in a line: in vivo. The following applies: male, mouse, iv.
Setting [5] is: i.v. 600 mg/kg, two-compartment model.

From the text for in vivo: (§2) The behavior of the animals and the lethality was monitored for 7 days post injection.
From the text for male Sprague-Dawley mice: as §2

As for `CN(CC(O)CO)C(=O)c1c(Br)c(NC(=O)CO)c(Br)c(C(=O)NCC(O)CO)c1Br` (centres unmarked) [Example 4, 2,4,6-tribromo-5-hydroxyacetylamino-N,N'-bis-(2,3-dihydroxypropyl)-N-methylisophthalamide], the “Viscosity (37°C)” value in data set [1] turned out to be 3.5 mPa·s. In data set [2], the “Osmolality a) monomer, 0.788 mol/L, 37°C” value is recorded as 818 mOsm/kg water. The same compound gave an Aqueous solubility in the data set “Aqueous solubility” above 400 mgBr/mL. For the same compound, the “increase of the tolerability with respect to the iodinated and brominated reference compounds” value (“increase of the tolerability” for short) with male Sprague-Dawley mice is 13 - 23%. In data set [3], the “detectable down to concentrations” value is 1.31 mmol/L and the “detectable down to concentrations, moles equivalent to mg I/mL of Iohexol” value was 0.5 mg I/mL. In data set [4] (24 h p.i.), the in faeces measured worked out at 5.1 % I.D and the “in the urine detected” value was found to be 63.7 % I.D. The “metabolisation (bile fluid, HPLC-analysis)” value in data set [4] (bile collected via catheter in the bile duct) is “no metabolisation”. For the same compound, the cumulative faecal excretion in data set [4] (i.v. 600 mg/kg, at 24 h) is 5.39 % of injected dose. For the same compound, the cumulative urinary excretion in data set [4] (i.v. 600 mg/kg, at 24 h p.i.) is 62.8 % of injected dose. Also, in data set [4] (setting [5]), the “distribution volume Vc” value was 0.26 L/kg, the “t½ α” value came out at 11.4 min and the “t½ β” value amounted to 31.2 min. Also, in the data set with erythrocyte morphology, the “influence on erythrocyte morphology compared to iodinated reference substances” value is listed as “substantially less influence on erythrocyte morphology than the iodinated reference substances” and the “Erythrocyte morphology Damage index 2 h” value is on record as 0.82.

The LD50 is the dose at which mortality reaches 50%. Lower therefore signals a more toxic substance. Consider `CN(C(=O)CC(=O)N(C)c1c(I)c(C(=O)NC(CO)C(O)CO)c(I)c(C(=O)NC(CO)C(O)CO)c1I)c1c(I)c(C(=O)NC(CO)C(O)CO)c(I)c(C(=O)NC(CO)C(O)CO)c1I` (centres unmarked) [Iotrolan, N,N'-bis-[2,4,6-triiodo-3,5-bis-[N-(1-hydroxymethyl-2,3-dihydroxypropyl)carbamoyl]phenyl]-N,N'-dimethylmalonamide, reference compound], for which the “Viscosity (37°C)” value in data set [1] was determined as 8.5 mPa·s. In data set [2], the “Osmolality b) dimer, 0.394 mol/L, 37° C” value amounted to 320 mOsm/kg water. Also, in “in vivo” (Sprague-Dawley), the LD50 at 7 days came to 63000 µmol/kg. For the same compound, the Aqueous solubility in the data set “Aqueous solubility” is above 400 mgBr/mL. Further, the “Erythrocyte morphology Damage index 2 h” value in the data set on erythrocyte morphology stood at 0.69.

Consider `CC(=O)N(CC(O)CO)c1c(I)c(C(=O)NCC(O)CO)c(I)c(C(=O)NCC(O)CO)c1I` (centres unmarked) [Iohexol, 5-[N-(2,3-dihydroxypropyl)acetylamino]-2,4,6-triiodo-N,N'-bis-(2,3-dihydroxypropyl)isoph-thalamide, reference compound], for which the “Erythrocyte morphology Damage index 2 h” value in the data set on erythrocyte morphology is recorded as 1.31.

Consider `CN(C(=O)CC(=O)N(C)c1c(Br)c(C(=O)NC(CO)C(O)CO)c(Br)c(C(=O)NC(CO)C(O)CO)c1Br)c1c(Br)c(C(=O)NC(CO)C(O)CO)c(Br)c(C(=O)NC(CO)C(O)CO)c1Br` (centres unmarked) [Example 26, N,N'-bis-[2,4,6-tribromo-3,5-bis-[N-(1-hydroxymethyl-2,3-dihydroxypropyl)carbamoyl]phenyl]-N,N'-dimethylmalonamide], for which the “Viscosity (37°C)” value in data set [1] stood at 6.3 mPa·s. Further, the “Osmolality b) dimer, 0.394 mol/L, 37° C” value in data set [2] was found to be 370 mOsm/kg water. In the data set “Aqueous solubility”, this compound displayed an Aqueous solubility of 400 mgBr/mL. In addition, the “increase of the tolerability” value in the data set on male Sprague-Dawley mice is listed as 13 - 23%. In the data set on erythrocyte morphology, the “influence on erythrocyte morphology compared to iodinated reference substances” value is given as “substantially less influence on erythrocyte morphology than the iodinated reference substances” and the “Erythrocyte morphology Damage index 2 h” value came to 0.51.

In the case of `CC(=O)N(CC(O)CO)c1c(Br)c(C(=O)NCC(O)CO)c(Br)c(C(=O)NCC(O)CO)c1Br` (centres unmarked) [reference compound], the “Viscosity (37°C)” value in data set [1] stood at 4.6 mPa·s. For the same compound, the “Osmolality a) monomer, 0.788 mol/L, 37°C” value in data set [2] is given as 908 mOsm/kg water. Moreover, the LD50 at 7 days in the data set “in vivo” is around 59000 µmol/kg. In addition, the Aqueous solubility in the data set “Aqueous solubility” is given as above 300 mgBr/mL.

Consider `NC(=O)c1c(Br)c(C(=O)NC(CO)C(O)CO)c(Br)c(N(CCO)C(=O)CO)c1Br` (centres unmarked) [Example 14, 2,4,6-tribromo-5-[N-(2-hydroxyethyl)hydroxyacetylamino]-N-(1-hydroxymethyl-2,3-dihydroxypropyl)isophthalamide], for which the “Viscosity (37°C)” value in data set [1] came out at 3.4 mPa·s. Further, in data set [2], the “Osmolality a) monomer, 0.788 mol/L, 37°C” value is 500 mOsm/kg water. For the same compound, in the data set “Aqueous solubility”, the Aqueous solubility is above 400 mgBr/mL. For the same compound, the “increase of the tolerability” value with male Sprague-Dawley mice is given as 13 - 23%. For the same compound, in the data set with erythrocyte morphology, the “influence on erythrocyte morphology compared to iodinated reference substances” value is on record as “substantially less influence on erythrocyte morphology than the iodinated reference substances” and the “Erythrocyte morphology Damage index 2 h” value was determined as 0.88.

As for `NC(=O)c1c(Br)c(C(=O)NCC(O)CO)c(Br)c(N(CC(O)CO)C(=O)CC(=O)N(CC(O)CO)c2c(Br)c(C(N)=O)c(Br)c(C(=O)NCC(O)CO)c2Br)c1Br` (centres unmarked) [Example 25, N,N'-bis-[2,4,6-tribromo-5-carbamoyl-3-[N-(2,3-dihydroxypropyl)carbamoyl]phenyl]-N,N'-bis-(2,3-dihydroxypropyl)-malonamide], in data set [1], the “Viscosity (37°C)” value is listed as 5.5 mPa·s. For the same compound, the “Osmolality b) dimer, 0.394 mol/L, 37° C” value in data set [2] was 320 mOsm/kg water. Moreover, in “Aqueous solubility”, the Aqueous solubility was determined as 400 mgBr/mL. For the same compound, in the data set with male Sprague-Dawley mice, the “increase of the tolerability” value is reported as 13 - 23%. Besides, in the data set on erythrocyte morphology, the “influence on erythrocyte morphology compared to iodinated reference substances” value is “substantially less influence on erythrocyte morphology than the iodinated reference substances” and the “Erythrocyte morphology Damage index 2 h” value was determined as 0.45.
